Test results reported in ChEMBL document CHEMBL1134003, “7-Pyrrolidinyl- and 7-piperidinyl-5-aryl-pyrrolo[2,3-d]pyrimidines--potent inhibitors of the tyrosine kinase c-Src” (Bioorg Med Chem Lett, 2001).

Experiments:
[1] = target: Proto-oncogene tyrosine-protein kinase Src (Homo sapiens, UniProt P12931); assay: Inhibition of p60 c-Src tyrosine kinase enzyme activity in liquid-phase tyrosine phosphorylation assay at 830 ng/mL
[2] = target: T1, Epidermal growth factor receptor (Homo sapiens, UniProt P00533); assay: Concentration required for inhibition of epidermal growth factor receptor (EGF-R) by tyrosine kinase enzyme activity
T1 sequence (P00533 whole entry): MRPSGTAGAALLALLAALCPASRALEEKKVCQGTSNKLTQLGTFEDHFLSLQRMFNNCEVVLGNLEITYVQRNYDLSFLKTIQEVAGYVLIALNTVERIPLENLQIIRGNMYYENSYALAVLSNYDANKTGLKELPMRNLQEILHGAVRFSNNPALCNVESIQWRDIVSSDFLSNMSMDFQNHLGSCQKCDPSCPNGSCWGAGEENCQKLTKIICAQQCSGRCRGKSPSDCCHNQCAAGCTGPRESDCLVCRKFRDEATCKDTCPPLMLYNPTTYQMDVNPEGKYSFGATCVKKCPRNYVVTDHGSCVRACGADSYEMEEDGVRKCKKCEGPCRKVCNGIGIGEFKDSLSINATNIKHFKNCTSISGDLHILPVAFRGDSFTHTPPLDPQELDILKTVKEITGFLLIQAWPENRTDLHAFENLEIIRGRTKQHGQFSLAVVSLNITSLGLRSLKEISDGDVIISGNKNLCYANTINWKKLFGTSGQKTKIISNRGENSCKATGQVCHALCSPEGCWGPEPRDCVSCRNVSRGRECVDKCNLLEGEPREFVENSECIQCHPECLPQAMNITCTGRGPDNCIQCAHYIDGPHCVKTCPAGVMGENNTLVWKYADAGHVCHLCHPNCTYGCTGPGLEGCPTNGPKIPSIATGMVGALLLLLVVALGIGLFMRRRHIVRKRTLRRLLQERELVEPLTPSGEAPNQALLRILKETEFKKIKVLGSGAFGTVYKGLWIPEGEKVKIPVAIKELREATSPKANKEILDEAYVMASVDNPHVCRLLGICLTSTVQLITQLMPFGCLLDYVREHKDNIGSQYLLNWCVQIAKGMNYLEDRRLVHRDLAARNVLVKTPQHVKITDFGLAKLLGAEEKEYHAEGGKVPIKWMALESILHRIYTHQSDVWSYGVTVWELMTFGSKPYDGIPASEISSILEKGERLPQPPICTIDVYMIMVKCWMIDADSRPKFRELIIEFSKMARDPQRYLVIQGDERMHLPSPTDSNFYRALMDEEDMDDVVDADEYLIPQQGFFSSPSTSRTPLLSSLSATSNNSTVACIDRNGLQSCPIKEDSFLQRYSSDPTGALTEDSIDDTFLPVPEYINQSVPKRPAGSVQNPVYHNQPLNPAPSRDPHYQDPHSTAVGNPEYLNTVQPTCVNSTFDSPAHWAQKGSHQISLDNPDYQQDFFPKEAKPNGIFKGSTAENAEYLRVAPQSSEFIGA

[3] = target: Proto-oncogene tyrosine-protein kinase Src (Gallus gallus, UniProt P00523); assay: Concentration required for inhibition of c-Src mediated phosphorylation of Fak in IC8.1 fibroblast cell assay; assay type: functional, cell-based
[4] = target: T2, Tyrosine-protein kinase ABL (Homo sapiens, UniProt P00519+P42684)
Description: Concentration required for inhibition of v-Abl receptor by tyrosine kinase enzyme assay

[5] = target: T1, Epidermal growth factor receptor; assay: Inhibition of autophosphorylation of epidermal growth factor receptor (EGF-R) in a cellular assay
[6] = target: T1, Epidermal growth factor receptor; assay: Inhibition of epidermal growth factor receptor (EGF-R)
[7] = target: T2, Tyrosine-protein kinase ABL; assay: Inhibition of v-Abl receptor tyrosine kinase enzyme activity; assay type: protein assay

Proto-oncogene tyrosine-protein kinase Src (Homo sapiens, UniProt P12931), sequence (P12931 2-536 limits assumed): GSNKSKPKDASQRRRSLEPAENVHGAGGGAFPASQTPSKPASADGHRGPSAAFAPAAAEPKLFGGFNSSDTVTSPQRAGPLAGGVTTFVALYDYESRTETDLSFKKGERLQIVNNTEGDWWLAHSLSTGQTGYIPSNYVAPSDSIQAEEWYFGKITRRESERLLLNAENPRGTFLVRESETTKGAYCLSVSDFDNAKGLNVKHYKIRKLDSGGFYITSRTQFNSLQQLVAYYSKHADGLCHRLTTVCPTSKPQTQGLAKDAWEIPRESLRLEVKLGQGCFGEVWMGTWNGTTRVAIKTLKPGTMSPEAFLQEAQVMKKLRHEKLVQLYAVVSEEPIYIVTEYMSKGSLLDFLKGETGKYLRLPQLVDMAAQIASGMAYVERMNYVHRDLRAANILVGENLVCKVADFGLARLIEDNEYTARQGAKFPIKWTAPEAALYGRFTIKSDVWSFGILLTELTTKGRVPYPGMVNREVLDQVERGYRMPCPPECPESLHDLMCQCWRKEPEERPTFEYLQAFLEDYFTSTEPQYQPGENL

Question: How did the IC50 [1] turn out when `CC(C)(C)OC(=O)N1C[C@H](n2cc(-c3ccccc3)c3c(N)ncnc32)C[C@@H]1CO` was run?
Answer: 2000 nM

Question: Which IC50 [1] does the source give for `Nc1ncnc2c1c(-c1ccccc1)cn2[C@H]1CN[C@@H](CO)C1` here?
Answer: 130 nM

Question: Which IC50 [2] does the source give for `COc1cccc(-c2cn(C3CCN(C(=O)OC(C)(C)C)C3)c3ncnc(N)c23)c1` (stereo not drawn) here?
Answer: 2100 nM

Question: And the IC50 [3]?
Answer: 4400 nM

Question: What about the IC50 [1] of the same molecule?
Answer: 270 nM

Question: And the IC50 [4]?
Answer: 2400 nM

Question: What does the source list for `COc1cccc(-c2cn(C3CCN(CCN(C)CCO)CC3)c3ncnc(N)c23)c1`?
Answer: IC50 [2]: 295 nM; IC50 [5]: 7800 nM; IC50 [3]: 600 nM; IC50 [1]: 6 nM; IC50 [4]: 360 nM

Question: `Nc1ncnc2c1c(-c1ccccc1)cn2C1CCNC1` (stereo not drawn) was tested. Which IC50 [1] did it give?
Answer: 230 nM

Question: Which results are given for `CC(C)(C)OC(=O)N1CCC(n2cc(-c3cccc(O)c3)c3c(N)ncnc32)C1` (stereo not drawn)?
Answer: IC50 [2]: 2200 nM; IC50 [5]: > 10000 nM; IC50 [3]: 3100 nM; IC50 [1]: 5 nM; IC50 [4]: 58 nM

Question: Which results are given for `CC(C)(C)OC(=O)N1C[C@@H](n2cc(-c3ccc(O)cc3)c3c(N)ncnc32)C[C@@H]1CO`?
Answer: IC50 [3]: 3300 nM; IC50 [1]: 24 nM

Question: With `COc1cccc(-c2cn(C3CCN(CC(N)=O)CC3)c3ncnc(N)c23)c1` as the molecule, how does the IC50 [2] read?
Answer: 350 nM

Question: What about the IC50 [3] of the same molecule?
Answer: 700 nM

Question: What about the IC50 [1] of the same molecule?
Answer: 22 nM

Question: What about the IC50 [4] of the same molecule?
Answer: 550 nM

Question: Which IC50 [3] does the source give for `COC(=O)CN1CCC(n2cc(-c3cccc(OC)c3)c3c(N)ncnc32)CC1` here?
Answer: 2800 nM

Question: What about the IC50 [1] of the same molecule?
Answer: 84 nM

Question: What about the IC50 [4] of the same molecule?
Answer: 1000 nM

Question: Which IC50 [2] does the source give for `COc1cccc(-c2cn(C3CCN(CCO)CC3)c3ncnc(N)c23)c1` here?
Answer: 900 nM

Question: And the IC50 [5]?
Answer: > 10000 nM

Question: What about the IC50 [3] of the same molecule?
Answer: 1400 nM

Question: What about the IC50 [1] of the same molecule?
Answer: 27 nM

Question: And the IC50 [4]?
Answer: 1030 nM

Question: `CCOC(=O)C[C@H]1C[C@H](n2cc(-c3ccccc3)c3c(N)ncnc32)CN1C(=O)OC(C)(C)C` was tested. Which IC50 [1] did it give?
Answer: 410 nM

Question: Which IC50 [2] does the source give for `COc1cccc(-c2cn(C3CCNC3)c3ncnc(N)c23)c1` (stereo not drawn) here?
Answer: 1120 nM

Question: What about the IC50 [3] of the same molecule?
Answer: > 5000 nM

Question: And the IC50 [1]?
Answer: 53 nM

Question: And the IC50 [4]?
Answer: 1400 nM

Question: With `Nc1ncnc2c1c(-c1cccc(O)c1)cn2C1CCN(CCO)CC1` as the molecule, how does the IC50 [2] read?
Answer: 2540 nM

Question: And the IC50 [5]?
Answer: > 10000 nM

Question: And the IC50 [3]?
Answer: 600 nM

Question: What about the IC50 [1] of the same molecule?
Answer: 1 nM

Question: And the IC50 [4]?
Answer: 98 nM

Question: How did the IC50 [2] turn out when `CN(C)C(=O)CN1CCC(n2cc(-c3cccc(O)c3)c3c(N)ncnc32)CC1` was run?
Answer: 500 nM

Question: And the IC50 [5]?
Answer: > 10000 nM

Question: And the IC50 [1]?
Answer: 3 nM

Question: And the IC50 [4]?
Answer: 120 nM

Question: For `CCOC(=O)C[C@H]1C[C@@H](n2cc(-c3ccc(O)cc3)c3c(N)ncnc32)CN1`, which IC50 [3] is on record?
Answer: 3300 nM

Question: What about the IC50 [1] of the same molecule?
Answer: 5 nM

Question: Which IC50 [1] does the source give for `CCOC(=O)C[C@H]1C[C@@H](n2cc(-c3ccccc3)c3c(N)ncnc32)CN1C(=O)OC(C)(C)C` here?
Answer: 5000 nM

Question: For `CCOC(=O)C[C@H]1C[C@H](n2cc(-c3ccc(O)cc3)c3c(N)ncnc32)CN1`, which IC50 [1] is on record?
Answer: 100 nM

Question: What does the source list for `Nc1ncnc2c1c(-c1cccc(O)c1)cn2C1CCNC1` (stereo not drawn)?
Answer: IC50 [2]: 1530 nM; IC50 [5]: > 10000 nM; IC50 [3]: 800 nM; IC50 [1]: 6 nM; IC50 [4]: 290 nM

Question: `COCCNCCN1CCC(n2cc(-c3cccc(OC)c3)c3c(N)ncnc32)CC1` was tested. Which IC50 [6] did it give?
Answer: 310 nM

Question: What about the IC50 [5] of the same molecule?
Answer: > 10000 nM

Question: And the IC50 [3]?
Answer: 290 nM

Question: What about the IC50 [1] of the same molecule?
Answer: 15 nM

Question: What about the IC50 [7] of the same molecule?
Answer: 310 nM

Question: Which IC50 [2] does the source give for `COC(=O)CN1CCC(n2cc(-c3cccc(O)c3)c3c(N)ncnc32)CC1` here?
Answer: 800 nM

Question: And the IC50 [5]?
Answer: > 10000 nM

Question: And the IC50 [3]?
Answer: 400 nM

Question: And the IC50 [1]?
Answer: < 1 nM

Question: What about the IC50 [4] of the same molecule?
Answer: 56 nM

Question: How did the IC50 [2] turn out when `NC(=O)CN1CCC(n2cc(-c3cccc(O)c3)c3c(N)ncnc32)CC1` was run?
Answer: 170 nM

Question: What about the IC50 [5] of the same molecule?
Answer: > 10000 nM

Question: What about the IC50 [3] of the same molecule?
Answer: 800 nM

Question: And the IC50 [1]?
Answer: 1 nM

Question: What about the IC50 [4] of the same molecule?
Answer: 210 nM

Question: With `COCCN(C)CCN1CCC(n2cc(-c3cccc(OC)c3)c3c(N)ncnc32)CC1` as the molecule, how does the IC50 [6] read?
Answer: 930 nM

Question: What about the IC50 [5] of the same molecule?
Answer: > 10000 nM

Question: What about the IC50 [3] of the same molecule?
Answer: 500 nM

Question: What about the IC50 [1] of the same molecule?
Answer: 47 nM

Question: And the IC50 [4]?
Answer: 500 nM

Question: Which IC50 [1] does the source give for `CCOC(=O)C[C@H]1C[C@H](n2cc(-c3ccccc3)c3c(N)ncnc32)CN1` here?
Answer: 600 nM

Question: Which results are given for `COc1ccc(-c2cn(C3CCN(C(=O)OC(C)(C)C)C3)c3ncnc(N)c23)cc1` (stereo not drawn)?
Answer: IC50 [3]: 400 nM; IC50 [1]: 400 nM

Question: `COc1ccc(-c2cn(C3CCNC3)c3ncnc(N)c23)cc1` (stereo not drawn) was tested. Which IC50 [1] did it give?
Answer: 300 nM

Question: With `CCOC(=O)C[C@H]1C[C@H](n2cc(-c3ccc(O)cc3)c3c(N)ncnc32)CN1C(=O)OC(C)(C)C` as the molecule, how does the IC50 [3] read?
Answer: 700 nM

Question: What about the IC50 [1] of the same molecule?
Answer: 35 nM

Question: With `CCOC(=O)C[C@H]1C[C@@H](n2cc(-c3ccccc3)c3c(N)ncnc32)CN1` as the molecule, how does the IC50 [3] read?
Answer: > 5000 nM

Question: And the IC50 [1]?
Answer: 15 nM

Question: Which IC50 [1] does the source give for `CCOC(=O)C[C@H]1C[C@@H](n2cc(-c3ccc(O)cc3)c3c(N)ncnc32)CN1C(=O)OC(C)(C)C` here?
Answer: 300 nM

Question: With `CC(C)(C)OC(=O)N1C[C@@H](n2cc(-c3ccccc3)c3c(N)ncnc32)C[C@@H]1CO` as the molecule, how does the IC50 [1] read?
Answer: 130 nM

Question: With `CC(C)(C)OC(=O)N1CCC(n2cc(-c3ccccc3)c3c(N)ncnc32)C1` (stereo not drawn) as the molecule, how does the IC50 [2] read?
Answer: 8300 nM

Question: And the IC50 [3]?
Answer: > 5000 nM

Question: And the IC50 [1]?
Answer: 180 nM

Question: How did the IC50 [2] turn out when `Nc1ncnc2c1c(-c1ccc(O)cc1)cn2C1CCNC1` (stereo not drawn) was run?
Answer: 2670 nM

Question: And the IC50 [3]?
Answer: 2700 nM

Question: What about the IC50 [1] of the same molecule?
Answer: 37 nM

Question: And the IC50 [4]?
Answer: 2800 nM

Question: With `COC(=O)CN1CCC(n2cc(-c3cccc(O)c3)c3c(N)ncnc32)C1` (stereo not drawn) as the molecule, how does the IC50 [2] read?
Answer: 740 nM

Question: And the IC50 [5]?
Answer: > 10000 nM

Question: What about the IC50 [3] of the same molecule?
Answer: 700 nM

Question: And the IC50 [1]?
Answer: 3 nM

Question: And the IC50 [4]?
Answer: 54 nM

Question: Which IC50 [2] does the source give for `COc1cccc(-c2cn(C3CCN(CC(=O)N(C)C)CC3)c3ncnc(N)c23)c1` here?
Answer: 750 nM

Question: What about the IC50 [3] of the same molecule?
Answer: > 5000 nM

Question: And the IC50 [1]?
Answer: 67 nM

Question: Which IC50 [2] does the source give for `COc1cccc(-c2cn(C3CCN(CC(N)=O)C3)c3ncnc(N)c23)c1` (stereo not drawn) here?
Answer: 440 nM

Question: What about the IC50 [3] of the same molecule?
Answer: > 5000 nM

Question: What about the IC50 [1] of the same molecule?
Answer: 38 nM

Question: What about the IC50 [4] of the same molecule?
Answer: 700 nM

Question: How did the IC50 [3] turn out when `COC(=O)CN1CCC(n2cc(-c3cccc(OC)c3)c3c(N)ncnc32)C1` (stereo not drawn) was run?
Answer: > 5000 nM

Question: What about the IC50 [1] of the same molecule?
Answer: 50 nM

Question: And the IC50 [4]?
Answer: 590 nM

Question: How did the IC50 [1] turn out when `Nc1ncnc2c1c(-c1ccccc1)cn2[C@@H]1CN[C@@H](CO)C1` was run?
Answer: 300 nM

Question: Which IC50 [2] does the source give for `NC(=O)CN1CCC(n2cc(-c3cccc(O)c3)c3c(N)ncnc32)C1` (stereo not drawn) here?
Answer: 400 nM

Question: And the IC50 [5]?
Answer: > 10000 nM

Question: And the IC50 [1]?
Answer: 4 nM

Question: And the IC50 [4]?
Answer: 150 nM

Question: What does the source list for `CC(C)(C)OC(=O)N1CCC(n2cc(-c3ccc(O)cc3)c3c(N)ncnc32)C1` (stereo not drawn)?
Answer: IC50 [3]: 400 nM; IC50 [1]: 8 nM

Question: `CC(C)(C)OC(=O)N1C[C@H](n2cc(-c3ccc(O)cc3)c3c(N)ncnc32)C[C@@H]1CO` was tested. Which IC50 [1] did it give?
Answer: 350 nM

Question: Which IC50 [3] does the source give for `Nc1ncnc2c1c(-c1ccc(O)cc1)cn2[C@H]1CNC(CO)C1` (single isomer, unassigned) here?
Answer: > 5000 nM

Question: And the IC50 [1]?
Answer: 50 nM

Question: Which IC50 [3] does the source give for `Nc1ncnc2c1c(-c1ccc(O)cc1)cn2C1CN[C@@H](CO)C1` (single isomer, unassigned) here?
Answer: > 5000 nM

Question: And the IC50 [1]?
Answer: 95 nM
